One experiment deals with T1, human recombinant HDAC1 (Homo sapiens, UniProt Q13547).
T1 construct: purchased Enzo Life Science BML-SE456
Briefly: HDAC1 enzyme activity inhibition assay (in vitro, fluorimetric). Type of experiment: biochemical. The following applies: human recombinant HDAC1, fluorimetric kit, 30° C. 60 minutes. The procedure, abridged:
(§1)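 Human recombinant enzyme (0.3 μg for HDAC1) reacted with 10 μM Fluor de Lys-SIRT1 substrate and 5-fold compound dilutions at 30 °C for 60 min, then developer for 30 min. Fluorescence read at Ex 360/Em 460; IC50 calculated. HDAC6 run by the same protocol.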

The target of another experiment is T2, human recombinant HDAC6 (Homo sapiens, UniProt Q9UBN7).
T2 construct: purchased Calbiochem 382180
T2 sequence (Q9UBN7 1-1215): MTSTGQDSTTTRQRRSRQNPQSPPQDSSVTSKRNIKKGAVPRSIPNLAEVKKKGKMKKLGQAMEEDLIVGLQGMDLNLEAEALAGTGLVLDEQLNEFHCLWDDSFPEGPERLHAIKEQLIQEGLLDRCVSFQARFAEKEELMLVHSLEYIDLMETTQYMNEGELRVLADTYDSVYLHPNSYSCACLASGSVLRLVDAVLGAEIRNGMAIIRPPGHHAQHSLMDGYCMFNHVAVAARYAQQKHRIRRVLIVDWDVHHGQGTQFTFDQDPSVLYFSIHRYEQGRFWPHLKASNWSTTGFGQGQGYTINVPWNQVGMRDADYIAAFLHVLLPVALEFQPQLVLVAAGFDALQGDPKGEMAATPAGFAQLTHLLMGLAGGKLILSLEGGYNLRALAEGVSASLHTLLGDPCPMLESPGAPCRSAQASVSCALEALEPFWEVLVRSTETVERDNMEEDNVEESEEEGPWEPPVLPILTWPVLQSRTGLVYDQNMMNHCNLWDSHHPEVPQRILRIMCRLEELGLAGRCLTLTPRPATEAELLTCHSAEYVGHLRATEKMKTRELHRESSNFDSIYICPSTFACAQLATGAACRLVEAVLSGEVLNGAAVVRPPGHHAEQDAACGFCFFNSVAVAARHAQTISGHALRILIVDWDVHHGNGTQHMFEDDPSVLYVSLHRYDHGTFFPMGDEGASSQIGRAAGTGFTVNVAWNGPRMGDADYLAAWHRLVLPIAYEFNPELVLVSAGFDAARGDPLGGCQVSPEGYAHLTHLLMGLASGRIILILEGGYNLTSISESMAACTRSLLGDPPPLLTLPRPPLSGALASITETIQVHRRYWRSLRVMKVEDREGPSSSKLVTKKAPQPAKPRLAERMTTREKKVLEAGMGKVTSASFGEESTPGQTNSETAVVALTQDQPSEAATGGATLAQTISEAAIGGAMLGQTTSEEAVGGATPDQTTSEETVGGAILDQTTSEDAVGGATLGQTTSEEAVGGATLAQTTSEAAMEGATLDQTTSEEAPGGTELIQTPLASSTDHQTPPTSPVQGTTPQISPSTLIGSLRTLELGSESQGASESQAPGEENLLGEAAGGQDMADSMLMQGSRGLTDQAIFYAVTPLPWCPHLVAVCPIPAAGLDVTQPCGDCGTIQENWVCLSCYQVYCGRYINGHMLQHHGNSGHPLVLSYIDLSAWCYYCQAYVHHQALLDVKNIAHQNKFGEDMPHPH
The experiment can be described thus: HDAC6 enzyme activity inhibition assay (in vitro, fluorimetric). It counts as biochemical. Conditions: for HDAC6 selectivity (fold): HDAC6 selectivity over HDAC1; for IC50: human recombinant HDAC6, fluorimetric kit, same protocol as HDAC1. The procedure, abridged: as §1

The structures appear in SMILES notation.

One may read the IC50 as the point on the concentration scale where inhibition reaches its midpoint.

T1 sequence (Q13547 whole entry): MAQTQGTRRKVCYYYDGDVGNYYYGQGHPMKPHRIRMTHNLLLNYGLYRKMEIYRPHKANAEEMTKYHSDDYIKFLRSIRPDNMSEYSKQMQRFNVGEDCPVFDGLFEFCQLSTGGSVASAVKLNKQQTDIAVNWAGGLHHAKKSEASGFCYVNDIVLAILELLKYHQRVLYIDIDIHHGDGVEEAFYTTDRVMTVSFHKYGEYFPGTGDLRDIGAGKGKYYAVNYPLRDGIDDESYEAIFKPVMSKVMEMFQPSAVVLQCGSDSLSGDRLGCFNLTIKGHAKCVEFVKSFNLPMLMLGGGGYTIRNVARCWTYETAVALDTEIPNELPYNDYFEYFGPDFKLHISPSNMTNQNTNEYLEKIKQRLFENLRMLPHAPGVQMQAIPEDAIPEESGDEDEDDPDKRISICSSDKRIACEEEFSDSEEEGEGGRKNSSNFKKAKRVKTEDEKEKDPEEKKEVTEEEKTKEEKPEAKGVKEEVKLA

As for `C[C@@H]1CN(Cc2ccc(C(=O)NO)cc2)C[C@H](C)N1Cc1cccc(F)c1` [Compound 225, 4-(((3R,5S)-4-(3-fluorobenzyl)-3,5-dimethylpiperazin-1-yl)methyl)-N-hydroxybenzamide], on human recombinant HDAC1, the IC50 worked out at 1900 nM. In addition, on human recombinant HDAC6, the “HDAC6 selectivity (fold)” value came to 36 fold and the half-inhibitory concentration (IC50) came out at 52 nM.
On the same counts, the results for `C[C@@H]1CN(Cc2ccc3cc(C(=O)NO)[nH]c3c2)C[C@H](C)N1Cc1ccccc1` [Compound 573, 6-(((3R,5S)-4-benzyl-3,5-dimethylpiperazin-1-yl)methyl)-N-hydroxy-1H-indole-2-carboxamide] are > 10000 nM, 36 fold and 1440 nM.
Taken in the same sequence, the figures for `C[C@@H]1CN(Cc2ccccc2C2=CCC(C)(C)CC2)C[C@H](C)N1Cc1ccc(C(=O)NO)cc1` [Compound 352, 4-(((2S,6R)-4-((4′,4′-dimethyl-2′,3′,4′,5′-tetrahydro-[1,1′-biphenyl]-2-yl)methyl)-2,6-dimethylpiperazin-1-yl)methyl)-N-hydroxybenzamide] were 13800 nM, >13 fold and 1060 nM.
Taken in the same sequence, the figures for `C[C@@H]1CN(C(=O)Nc2ccc3c(ccn3C)c2)C[C@H](C)N1Cc1ccc(C(=O)NO)cc1` [Compound 185, (3R,5S)-4-(4-(hydroxycarbamoyl)benzyl)-3,5-dimethyl-N-(1-methyl-1 H -indol-5-yl)piperazine-1-carboxamide] were 800 nM, 3 fold and 249 nM.
As to `C[C@@H]1CN(Cc2ccc(C(=O)NO)cc2)C[C@H](C)N1C(=O)NCc1cccc(F)c1` [Compound 232, (2S,6R)-N-(3-fluorobenzyl)-4-(4-(hydroxycarbamoyl)benzyl)-2,6-dimethylpiperazine-1-carboxamide], the 50% inhibitory concentration (IC50) on human recombinant HDAC1 worked out at 7900 nM. On human recombinant HDAC6, the “HDAC6 selectivity (fold)” value was determined as 28 fold and the half-inhibitory concentration (IC50) came out at 286 nM.
As for `C[C@@H]1CN(C(=O)c2ccccc2)C[C@H](C)N1Cc1ccc(C(=O)NO)cc1` [Compound 080, 4-(((2S,6R)-4-benzoyl-2,6-dimethylpiperazin-1-yl)methyl)-N-hydroxybenzamide], at human recombinant HDAC1, the IC50 came out at 6600 nM. Besides, on human recombinant HDAC6, the “HDAC6 selectivity (fold)” value was 37 fold and the 50% inhibitory concentration (IC50) amounted to 179 nM.
Taken in the same sequence, the figures for `C[C@@H]1CN(C(=O)c2ccccc2-c2ccco2)C[C@H](C)N1Cc1ccc(C(=O)NO)cc1` [Compound 276, 4-(((2S,6R)-4-(2-(furan-2-yl)benzoyl)-2,6-dimethylpiperazin-1-yl)methyl)-N-hydroxybenzamide] were 12300 nM, 36 fold and 337 nM.
For `C[C@@H]1CN(C(=O)c2cccc(-c3ccoc3)c2)C[C@H](C)N1Cc1ccc(C(=O)NO)cc1` [Compound 258, 4-(((2S,6R)-4-(3-(furan-3-yl)benzoyl)-2,6-dimethylpiperazin-1-yl)methyl)-N-hydroxybenzamide], the IC50 at human recombinant HDAC1 was 1700 nM. For the same compound, on human recombinant HDAC6, the “HDAC6 selectivity (fold)” value is 7 fold and the IC50 was found to be 258 nM.
Taken in the same sequence, the figures for `CC(CN(C)Cc1ccccc1)NCc1cccc(CN2[C@H](C)CN(Cc3ccc(C(=O)NO)cc3)C[C@@H]2C)c1` (stereo partly drawn) [Compound 456, 4-(((3R,5S)-4-(3-(((1-(benzyl(methyl)amino)propan-2-yl)amino)methyl)benzyl)-3,5-dimethylpiperazin-1-yl)methyl)-N-hydroxybenzamide] were 11100 nM, 77 fold and 144 nM.
On the same counts, the results for `C[C@@H]1CN(Cc2ccc(C(=O)NO)cc2)C[C@H](C)N1C(=O)Nc1cccc(Cl)c1` [Compound 099, (2S,6R)-N-(3-chlorophenyl)-4-(4-(hydroxycarbamoyl)benzyl)-2,6-dimethylpiperazine-1-carboxamide] are 12400 nM, 51 fold and 242 nM.
On the same counts, the results for `C[C@@H]1CN(Cc2cc3cc(C(=O)NO)ccc3o2)C[C@H](C)N1Cc1ccccc1` [Compound 574, 2-(((3R,5S)-4-benzyl-3,5-dimethylpiperazin-1-yl)methyl)-N-hydroxybenzofuran-5-carboxamide] are 3900 nM, 4 fold and 810 nM.
On to `C[C@@H]1CN(Cc2ccc(C(=O)NO)cc2)C[C@H](C)N1Cc1cccc(C2=CCOCC2)c1` [Compound 346, 4-(((3R,5S)-4-(3-(3,6-dihydro-2H-pyran-4-yl)benzyl)-3,5-dimethylpiperazin-1-yl)methyl)-N-hydroxybenzamide], for which the IC50 on human recombinant HDAC1 was 8300 nM; at human recombinant HDAC6 it was 25 nM. Also, the “HDAC6 selectivity (fold)” value on human recombinant HDAC6 was 332 fold.
On the same counts, the results for `C[C@@H]1CN(Cc2ccc(C3=CCC(C)(C)CC3)cc2)C[C@H](C)N1Cc1ccc(C(=O)NO)cc1` [Compound 400, 4-(((2S,6R)-4-((4′,4′-dimethyl-2′,3′,4′,5′-tetrahydro-[1,1′-biphenyl]-4-yl)methyl)-2,6-dimethylpiperazin-1-yl)methyl)-N-hydroxybenzamide] are 11300 nM, 2820 nM and 4 fold.
Regarding `C[C@@H]1CN(Cc2ccc3[nH]c(C(=O)NO)cc3c2)C[C@H](C)N1Cc1ccccc1` [Compound 569, 5-(((3R,5S)-4-benzyl-3,5-dimethylpiperazin-1-yl)methyl)-N-hydroxy-1H-indole-2-carboxamide], the concentration for half-maximal inhibition (IC50) on human recombinant HDAC1 is > 10000 nM. On human recombinant HDAC6, the “HDAC6 selectivity (fold)” value was found to be 82 fold and the IC50 came out at 840 nM.
On the same counts, the results for `C[C@@H]1CN(C(=O)c2cccc(C3=CCOCC3)c2)C[C@H](C)N1Cc1ccc(C(=O)NO)cc1` [Compound 259, 4-(((2S,6R)-4-(3-(3,6-dihydro-2H-pyran-4-yl)benzoyl)-2,6-dimethylpiperazin-1-yl)methyl)-N-hydroxybenzamide] are 2500 nM, 6 fold and 400 nM.
For `C[C@@H]1CN(Cc2ccc(/C=C/C(=O)NO)cc2)C[C@H](C)N1Cc1cccc(CN2CCOCC2)c1` [Compound 472, (E)-3-(4-(((3R,5S)-3,5-dimethyl-4-(3-(morpholinomethyl)benzyl)piperazin-1-yl)methyl)phenyl)-N-hydroxyacrylamide], at human recombinant HDAC1, the concentration for half-maximal inhibition (IC50) is 200 nM. Moreover, on human recombinant HDAC6, the “HDAC6 selectivity (fold)” value came out at 3 fold and the half-maximal inhibitory concentration (IC50) stood at 55 nM.
With `CCCCN1C[C@@H](C)N(Cc2ccc(C(=O)NO)cc2)[C@@H](C)C1` [Compound 274, 4-(((2S,6R)-4-butyl-2,6-dimethylpiperazin-1-yl)methyl)-N-hydroxybenzamide], the IC50 at human recombinant HDAC1 was determined as 13500 nM. Also, on human recombinant HDAC6, the “HDAC6 selectivity (fold)” value is on record as 36 fold and the IC50 worked out at 378 nM.
On the same counts, the results for `C[C@@H]1CN(Cc2ccc(C(=O)NO)cc2)C[C@H](C)N1Cc1cccc(CN2CC(F)(F)C2)c1` [Compound 384, 4-(((3R,5S)-4-(3-((3,3-difluoroazetidin-1-yl)methyl)benzyl)-3,5-dimethylpiperazin-1-yl)methyl)-N-hydroxybenzamide] are > 10000 nM, >94 fold and 106 nM.
Taken in the same sequence, the figures for `C[C@@H]1CN(Cc2cc(F)c(F)cc2F)C[C@H](C)N1Cc1ccc(C(=O)NO)cc1` [Compound 215, 4-(((2S,6R)-2,6-dimethyl-4-(2,4,5-trifluorobenzyl)piperazin-1-yl)methyl)-N-hydroxybenzamide] were > 10000 nM, 2 fold and 523 nM.
On the same counts, the results for `CCN(CC)Cc1cccc(CN2C[C@@H](C)N(Cc3ccc(/C=C/C(=O)NO)cc3)[C@@H](C)C2)c1` [Compound 476, (E)-3-(4-(((2S,6R)-4-(3-((diethylamino)methyl)benzyl)-2,6-dimethylpiperazin-1-yl)methyl)phenyl)-N-hydroxyacrylamide] are 900 nM, 6 fold and 142 nM.
